The results in this text go back to US20060128695A1, “Cyclic nucleotide phosphodiesterase inhibitors, preparation and uses” (NEURO3D, priority 2002, published 2006).

Molecules are shown by their SMILES. pIC50: −log10 of the molar value.

One assay concerns the target T1, PDE2 (Bos taurus, UniProt P14099).
T1 construct: PDE2 was prepared from bovine endothelial cells by the same methods; endogenous in cells; host or cells: bovine endothelial cells
T1 sequence (P14099 1-921): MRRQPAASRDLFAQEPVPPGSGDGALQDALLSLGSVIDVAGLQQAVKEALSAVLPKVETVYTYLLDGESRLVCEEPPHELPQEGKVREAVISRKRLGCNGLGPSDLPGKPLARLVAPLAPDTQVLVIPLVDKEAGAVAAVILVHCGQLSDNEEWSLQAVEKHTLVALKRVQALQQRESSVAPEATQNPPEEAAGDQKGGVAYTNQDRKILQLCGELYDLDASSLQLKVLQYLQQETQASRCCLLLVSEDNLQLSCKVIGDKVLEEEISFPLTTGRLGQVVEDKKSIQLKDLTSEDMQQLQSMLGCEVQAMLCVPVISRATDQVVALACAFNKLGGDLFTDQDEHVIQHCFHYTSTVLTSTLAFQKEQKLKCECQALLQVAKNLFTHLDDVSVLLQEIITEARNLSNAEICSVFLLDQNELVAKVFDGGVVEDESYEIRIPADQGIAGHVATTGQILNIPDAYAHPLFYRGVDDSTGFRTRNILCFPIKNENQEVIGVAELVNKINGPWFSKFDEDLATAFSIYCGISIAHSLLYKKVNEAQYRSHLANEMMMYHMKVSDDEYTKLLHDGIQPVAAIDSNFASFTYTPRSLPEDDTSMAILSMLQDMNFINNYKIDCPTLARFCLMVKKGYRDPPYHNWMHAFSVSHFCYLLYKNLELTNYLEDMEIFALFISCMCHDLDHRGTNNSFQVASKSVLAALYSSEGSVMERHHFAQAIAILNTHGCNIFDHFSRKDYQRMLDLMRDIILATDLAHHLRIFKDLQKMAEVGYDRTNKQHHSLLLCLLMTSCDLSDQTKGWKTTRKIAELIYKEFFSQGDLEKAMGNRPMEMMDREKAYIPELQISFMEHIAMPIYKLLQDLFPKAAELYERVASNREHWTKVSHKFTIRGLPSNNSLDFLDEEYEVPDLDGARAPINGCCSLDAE
In words: Inhibition of PDE2, radioenzymatic phosphodiesterase assay. It counts as biochemical, bovine.
Conditions: not given
As a reminder, the pIC50 is −log10 of the IC50, conventionally taken in molar units. A low value points to a large IC50. The molecule `COc1cc2c(cc1OC)N(C)C(=O)CN=C2c1cccc(C#N)c1` [Compound 4a, 3-(7,8-dimethoxy-1-methyl-2-oxo-2,3-dihydro-1H-1,4-benzodiazepin-5-yl)-benzonitrile] had a negative-log IC50 (pIC50) of 5.17.
`COc1cc2c(cc1OC)N(Cc1ccccc1)C(=O)CN=C2c1cccc(C#N)c1` [Compound 4m, 3-(1-benzyl-7,8-dimethoxy-2-oxo-2,3-dihydro-1H-1,4-benzodiazepin-5-yl)benzonitrile]: the pIC50 was 5.82. This pIC50 is 0.65 log units higher than that of the molecule before.
Molecule `CCOC(=O)CN1C(=O)CN=C(c2cccc(C#N)c2)c2cc(OC)c(OC)cc21` [Compound 4n, Ethyl[5-(3-cyanophenyl)-7,8-dimethoxy-2-oxo-2,3-dihydro-1H-1,4-benzodiazepin-1-yl]acetate] showed a pIC50 of 5.43. Against the preceding molecule, the pIC50 is 0.39 log units lower.
On the same count and under the same terms, next, `COc1cc2c(cc1OC)C(c1cccc(C(N)=O)c1)=NCC(=O)N2` [Compound 5e, 3-(7,8-dimethoxy-2-oxo-2,3-dihydro-1H-1,4-benzodiazepin-5-yl)benzamide]: 5.18.
Molecule `CCCN1C(=O)CN=C(c2cccc(C(N)=O)c2)c2cc(OC)c(OC)cc21` [Compound 5f, 3-(7,8-dimethoxy-1-propyl-2-oxo-2,3-dihydro-1H-1,4-benzodiazepin-5-yl)benzamide] showed a negative-log IC50 (pIC50) of 4.90.
With `CCN1C(=O)CN=C(c2cccc(C(N)=O)c2)c2cc(OC)c(OC)cc21` [Compound 5g, 3-(1-ethyl-7,8-dimethoxy-2-oxo-2,3-dihydro-1H-1,4-benzodiazepin-5-yl)benzamide], the negative logarithm of the IC50 (pIC50) is 4.61. Compared with the last molecule, the pIC50 is 0.29 log units lower.
On the same count and under the same terms, next, `COc1cc2c(cc1OC)N(C)C(=O)C(C)N=C2c1cccc(C(N)=O)c1` (centres unmarked) [Compound 5j, 3-(7,8-dimethoxy-1,3-dimethyl-2-oxo-2,3-dihydro-1H-1,4-benzodiazepin-5-yl) benzamide]: 5.35.

The assay is the same for the next values; noted with them: 10 μM test compound; PDE2 from bovine endothelial cells.
Regarding `COc1cc2c(cc1OC)C(c1cccc(C(F)(F)F)c1)=NCC(=O)N2` [Compound 3d, 7,8-dimethoxy-[5-(3-trifluoromethyl)phenyl]-1,3-dihydro-2H-1,4-benzodiazepin-2-one], the “PDE2 percentage inhibition at 10 μM” value worked out at 22%.
For the molecule `COc1cc2c(cc1OC)N(Cc1ccc(Cl)c(Cl)c1)C(=O)CN=C2c1cccc(C#N)c1` [Compound 4d, 3-[1-(3,4-chlorobenzyl)-7,8-dimethoxy-2-oxo-2,3-dihydro-1H-1,4-benzodiazepin-5-yl]-benzonitrile], the “PDE2 percentage inhibition at 10 μM” value amounted to 47.6%.
The same measure, in the same setting: next, `COc1ccc(CN2C(=O)CN=C(c3cccc(C#N)c3)c3cc(OC)c(OC)cc32)cc1` [Compound 4e, 3-[7,8-dimethoxy-l-(4-methoxybenzyl)-2-oxo-2,3-dihydro-1H-1,4-benzodiazepin-5-yl]-benzonitrile]: 13.9%.

Staying with this assay, now noted: 10 μM test compound; PDE2 from bovine endothelial cells; read-out: PDE2 percentage inhibition at 10 μM.
The inhibition is the percentage by which the read-out fell short of the control. Regarding `COc1cc2c(c(Br)c1OC)N(C)C(=O)CN=C2c1cccc(C(N)=O)c1` [Compound 5d, 3-(9-bromo-7,8-dimethoxy-1-methyl-2-oxo-2,3-dihydro-1H-1,4-benzodiazepin-5-yl)benzamide], the inhibition at 10 µM was 19.2%.

Staying with this assay, now noted: read-out: PDE2 percentage inhibition at 10 μM.
As for `COc1cc2c(cc1OC)N(Cc1ccc(Cl)cc1)C(=O)CN=C2c1cccc(C#N)c1` [Compound 4c, 3-[1-(4-chlorobenzyl)-7,8-dimethoxy-2-oxo-2,3-dihydro-1H-1,4-benzodiazepin-5-yl]-benzonitrile], the inhibition at 10 µM amounted to 35.3%.
For the molecule `COc1cc2c(cc1OC)N(Cc1cccc(Cl)c1)C(=O)CN=C2c1cccc(C#N)c1` [Compound 4f, 3-[1-(3-chlorobenzyl)-7,8-dimethoxy-2-oxo-2,3-dihydro-1H-1,4-benzodiazepin-5-yl]-benzonitrile], the inhibition at 10 µM came out at 17.1%.
Same read-out and setting: the value for `COc1cc2c(cc1OC)N(Cc1cccc(C(F)(F)F)c1)C(=O)CN=C2c1cccc(C#N)c1` [Compound 4g, 3-{7,8-dimethoxy-2-oxo-1-[3-(trifluoromethyl)benzyl]-2,3-dihydro-1H-1,4-benzodiazepin-5-yl]-benzonitrile] was 14.3%; that for `COc1cc2c(cc1OC)N(Cc1ccccc1Cl)C(=O)CN=C2c1cccc(C#N)c1` [Compound 4h, 3-[1-(2-chlorobenzyl)-7,8-dimethoxy-2-oxo-2,3-dihydro-1H-1,4-benzodiazepin-5-yl]-benzonitrile] was 16%.
Still for that read-out and setting: the value for `COc1cc2c(cc1OC)N(Cc1ccc(C(F)(F)F)cc1)C(=O)CN=C2c1cccc(C#N)c1` [Compound 4i, 3-{7,8-dimethoxy-2-oxo-1-[4-(trifluoromethyl)benzyl]-2,3-dihydro-1H-1,4-benzodiazepin-5-yl}-benzonitrile] was 15.7%.
Same read-out and setting: the value for `COc1cc2c(cc1OC)N(CCc1ccccc1)C(=O)CN=C2c1cccc(C#N)c1` [Compound 4j, 3-[7,8-dimethoxy-2-oxo-1-(2-phenylethyl)-2,3-dihydro-1H-1,4-benzodiazepin-5-yl]-benzonitrile] was 5.6%; that for `CCN1C(=O)CN=C(c2cccc(C#N)c2)c2cc(OC)c(OC)cc21` [Compound 4k, 3-(1-ethyl-7,8-dimethoxy-2-oxo-2,3-dihydro-1H-1,4-benzodiazepin-5-yl)benzonitrile] was 75.9%; that for `CCCN1C(=O)CN=C(c2cccc(C#N)c2)c2cc(OC)c(OC)cc21` [Compound 4l, 3-(7,8-dimethoxy-1-propyl-2-oxo-2,3-dihydro-1H-1,4-benzodiazepin-5-yl)benzonitrile] was 72.1%.
For `CCN1C(=O)CN=C(c2cccc(C(F)(F)F)c2)c2cc(OC)c(OC)cc21` [Compound 4q, 7,8-dimethoxy-1-ethyl-5-[3-(trifluoromethyl)phenyl]-1,3-dihydro-2H-1,4-benzodiazepin-2-one], the inhibition at 10 µM came out at 32%.
For `CCCN1C(=O)CN=C(c2cccc(C(F)(F)F)c2)c2cc(OC)c(OC)cc21` [Compound 4r, 5-[3-(trifluoromethyl)phenyl]-7,8-dimethoxy-1-n-propyl-1,3-dihydro-1,4-benzodiazepin-2-one], the inhibition at 10 µM was 34%.
On the same count and under the same terms, next, `COc1cc2c(cc1OC)N(Cc1ccccc1)C(=O)CN=C2c1cccc(C(F)(F)F)c1` [Compound 4s, 1-benzyl-5-[3-(trifluoromethyl)phenyl]-7,8-dimethoxy-1,3-dihydro-1,4-benzodiazepin-2-one]: 14%; `COc1cc2c(c(-c3ccccc3)c1OC)C(c1cccc(C(N)=O)c1)=NCC(=O)N2C` [Compound 5c, 3-(7,8-dimethoxy-1-methyl-2-oxo-6-phenyl-2,3-dihydro-1H-1,4-benzodiazepin-5-yl)benzamide]: 53.3%; `COc1cc2c(cc1OC)N(Cc1ccccc1)C(=O)CN=C2c1cccc(C(N)=O)c1` [Compound 5h, 3-(1-benzyl-7,8-dimethoxy-2-oxo-2,3-dihydro-1H-1,4-benzodiazepin-5-yl)benzamide]: 0%.
Regarding `CCOC(=O)CN1C(=O)CN=C(c2cccc(C(N)=O)c2)c2cc(OC)c(OC)cc21` [Compound 5i, Ethyl{5-[3-(aminocarbonyl)phenyl]-7,8-dimethoxy-2-oxo-2,3-dihydro-1H-1,4-benzodiazepin-1-yl}acetate], the inhibition at 10 µM was 0%.
On to `COc1cc2c(cc1OC)N(C)C(=O)C(Cc1ccc(Cl)c(Cl)c1)N=C2c1cccc(C(N)=O)c1` (centres unmarked) [Compound 5k, 3-[3-(3,4-dichlorobenzyl)-7,8-dimethoxy-1-methyl-2-oxo-2,3-dihydro-1H-1,4-benzodiazepin-5-yl]benzamide], for which the inhibition at 10 µM stood at 67.8%.
